Reference: article PMC5516028, “Molecular tools for GABAA receptors: High affinity ligands for β1-containing subtypes” (Scientific Reports, 2017)

Columns and labels:
Format in all cases: cell-based
α1β1 GABAA receptors = biological target: T1, α1β1 GABAA receptors (Rattus norvegicus, UniProt P15431+P62813); assay: Two electrode voltage clamp in Xenopus laevis oocytes, α1β1; settings: α1β1, α1β1γ1 and α1β1δ receptors (Fig. 6), versus compound 1
T1 construct: expressed in transfected cells; host or cells: Xenopus laevis oocytes, mRNA injected
T1 sequence (P62813 28-455): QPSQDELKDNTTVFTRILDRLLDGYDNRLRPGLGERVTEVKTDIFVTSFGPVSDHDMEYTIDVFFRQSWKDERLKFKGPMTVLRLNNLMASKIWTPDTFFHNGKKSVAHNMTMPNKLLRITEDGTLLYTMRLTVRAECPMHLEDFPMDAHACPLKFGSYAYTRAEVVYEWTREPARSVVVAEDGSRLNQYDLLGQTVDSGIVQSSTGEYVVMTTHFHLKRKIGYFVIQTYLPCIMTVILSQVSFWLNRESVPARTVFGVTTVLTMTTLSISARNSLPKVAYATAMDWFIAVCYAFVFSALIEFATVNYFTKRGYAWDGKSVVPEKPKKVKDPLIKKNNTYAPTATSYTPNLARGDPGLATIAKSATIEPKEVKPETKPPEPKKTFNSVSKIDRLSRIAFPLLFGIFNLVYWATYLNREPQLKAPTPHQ
T1 sequence (P15431 26-474): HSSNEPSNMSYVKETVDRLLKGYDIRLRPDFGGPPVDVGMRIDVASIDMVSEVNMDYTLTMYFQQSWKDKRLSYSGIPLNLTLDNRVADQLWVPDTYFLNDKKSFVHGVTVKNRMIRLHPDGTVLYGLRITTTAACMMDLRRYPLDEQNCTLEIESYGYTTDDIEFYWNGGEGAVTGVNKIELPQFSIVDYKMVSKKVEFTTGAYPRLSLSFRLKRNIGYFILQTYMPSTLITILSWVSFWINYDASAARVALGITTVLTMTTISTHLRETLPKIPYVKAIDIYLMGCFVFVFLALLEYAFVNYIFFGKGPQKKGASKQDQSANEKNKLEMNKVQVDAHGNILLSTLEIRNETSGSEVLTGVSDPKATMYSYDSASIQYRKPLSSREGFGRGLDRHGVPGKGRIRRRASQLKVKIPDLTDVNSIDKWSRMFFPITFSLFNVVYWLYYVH
Excerpt: (§1) cDNA’s of rat GABAA receptor subunits α1, α4, β1, β2, β3 and γ2S were cloned as described. cDNAs of the rat subunits α2, α3 and α5 were gifts from P. Malherbe, that of α6 and γ1 were gifts of P. Seeburg and that of δ was a gift of C. Czajkowski. The mutants were constructed using the Q5 Site-Directed Mutagenesis Kit (New England Biolabs) following manufacturer’s instruction. We used the wild-type rat β3-pCI vector as template and the primers […] and […] resulting in a substitution of amino acid N41 (AAC) to R (AGG). We used the wild-type rat β1-pCI vector as template and the primers […] and […] resulting in a substitution of amino acid R41 (CGG) to N (AAC). The mutated subunits were confirmed by sequencing.
(§2) In vitro transcription of mRNA was based on the cDNA expression vectors encoding for rat GABAA receptor subunits α1–6, β1-3, γ1,2, δ and the two β mutants (β1R41N and β3N41R)[40]. After linearizing the cDNA vectors with appropriate restriction endonucleases, the cDNA was purified and concentrated with the DNA Clean and Contentrator ^TM Kit (Zymoresearch, Catalog No. D4005). Capped transcripts of the purified cDNA were produced using the mMESSAGE mMACHINE® T7 transcription kit (Ambion, TX, USA) and polyadenylated using the Ambion PolyA tailing kit (Ambion). After transcription and polyadenylation the RNA was purified with the MEGAclear ^TM Kit (Ambion, Catalog No. AM1908). The final RNA concentration was measured on NanoDrop® ND-1000 and finally diluted and stored in diethylpyrocarbonate-treated water at −80 °C. For the microinjection, the RNA of αβ receptor combinations was mixed at 1:1 ratio (which leads to αβ receptors that consist of predominantly 3 beta and 2 alpha subunits[27]), for αkβlγm (k = 1–3, l = 1, 3, m = 1, 2) receptors at 1:1:5 ratio, for αkβ3γ2 (k = 4–6) and αkβlδ (k = 1, 4 and 6, l = 1, 3) receptor combinations at 3:1:5 ratio.
(§3) Mature female Xenopus laevis (Nasco, WI) were anesthetized in a bath of ice-cold 0.17% Tricain (Ethyl-m-aminobenzoate, Sigma, MO) before decapitation in full accordance with all rules of the Austrian animal protection law (see http://www.ris.bka.gv.at/Dokumente/BgblAuth/BGBLA_2012_I_114/BGBLA_2012_I_114.pdf) and the Austrian animal experiment by-laws (see https://www.ris.bka.gv.at/Dokumente/BgblAuth/BGBLA_2012_II_522/BGBLA_2012_II_522.pdf) which implement the European Directive 2010/63/EU (see http://eur-lex.europa.eu/LexUriServ/LexUriServ.do?uri=OJ:L:2010:276:0033:0079:en:PDF) into the Austrian law (all information accessed on July 27, 2016). The frog’s ovaries were transferred to ND96 medium (96 mM NaCl, 2 mM KCl, 1 mM MgCl2, 5 mM HEPES; pH 7.5). Stage 5–6 oocytes with the follicle cell layer around them were roughly dissected with forceps into packages of 10–15 cells and washed in Ca^2+-free ND96 medium. Cells were then digested with collagenase (type IA, Sigma, NO, 1 mg/mL ND96) at 18 °C shaking at 30 rpm for 30–60 minutes and gently defolliculated with the aid of a glass pipette with appropriate tip diameter and a platinum loop. Defolliculated cells were stored at 18 °C for at least 6 hours in ND96 solution containing penicillin G (10000 IU/100 mL) and streptomycin (10 mg/100 mL) in order to preselect and exclude damaged cells from further treatment. Healthy defolliculated oocytes were injected with an aqueous solution of mRNA. A total of 4.5 ng of mRNA per oocyte was injected with a Nanoject II (Drummond). After injection of mRNA, oocytes were incubated at 18 °C (ND96 + antibiotic) for 2–3 days for αβ receptors and for 3–4 days for αβγ or αβδ receptors before recording. When cells were measured at later time points, oocytes were stored at +4 °C instead of 18 °C.
(§4) For electrophysiological recordings, oocytes were placed on a nylon-grid in a bath of Ca^2+-containing NDE solution medium [96 mM NaCl, 5 mM HEPES-NaOH (pH 7.5), 2 mM KCl, 1 mM MgCl2, 1.8 mM CaCl2].

α1β1γ1 GABAA receptors = biological target: T2, α1β1γ1 GABAA receptors (Rattus norvegicus, UniProt P15431+P62813); assay: Two electrode voltage clamp in Xenopus laevis oocytes, α1β1γ1
T2 construct: expressed in transfected cells; host or cells: Xenopus laevis oocytes, mRNA injected
T2 sequence (P62813 28-455): as the sequence (P62813 28-455) above
T2 sequence (P15431 26-474): as the sequence (P15431 26-474) above
T2 sequence (P23574 36-465 partner limits assumed): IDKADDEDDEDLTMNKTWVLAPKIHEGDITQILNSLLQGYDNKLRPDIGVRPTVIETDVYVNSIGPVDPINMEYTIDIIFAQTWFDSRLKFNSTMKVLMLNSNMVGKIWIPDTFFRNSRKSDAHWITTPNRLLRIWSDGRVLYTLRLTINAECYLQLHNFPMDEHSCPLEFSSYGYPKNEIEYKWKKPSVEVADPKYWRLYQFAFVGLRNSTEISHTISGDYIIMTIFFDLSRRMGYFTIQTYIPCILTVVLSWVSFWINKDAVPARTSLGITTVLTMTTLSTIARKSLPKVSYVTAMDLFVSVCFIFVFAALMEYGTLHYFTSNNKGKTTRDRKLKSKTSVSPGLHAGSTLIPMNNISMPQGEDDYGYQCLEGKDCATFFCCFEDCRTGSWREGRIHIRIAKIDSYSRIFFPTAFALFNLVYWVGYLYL
Excerpt: as §1, §2, §3, §4

α1β1δ GABAA receptors = biological target: T3, α1β1δ GABAA receptors (Rattus norvegicus, UniProt P15431+P62813); assay: Two electrode voltage clamp in Xenopus laevis oocytes, α1β1δ
T3 construct: expressed in transfected cells; host or cells: Xenopus laevis oocytes, mRNA injected
T3 sequence (P62813 28-455): as the sequence (P62813 28-455) above
T3 sequence (P15431 26-474): as the sequence (P15431 26-474) above
T3 sequence (P18506 17-449 partner limits assumed): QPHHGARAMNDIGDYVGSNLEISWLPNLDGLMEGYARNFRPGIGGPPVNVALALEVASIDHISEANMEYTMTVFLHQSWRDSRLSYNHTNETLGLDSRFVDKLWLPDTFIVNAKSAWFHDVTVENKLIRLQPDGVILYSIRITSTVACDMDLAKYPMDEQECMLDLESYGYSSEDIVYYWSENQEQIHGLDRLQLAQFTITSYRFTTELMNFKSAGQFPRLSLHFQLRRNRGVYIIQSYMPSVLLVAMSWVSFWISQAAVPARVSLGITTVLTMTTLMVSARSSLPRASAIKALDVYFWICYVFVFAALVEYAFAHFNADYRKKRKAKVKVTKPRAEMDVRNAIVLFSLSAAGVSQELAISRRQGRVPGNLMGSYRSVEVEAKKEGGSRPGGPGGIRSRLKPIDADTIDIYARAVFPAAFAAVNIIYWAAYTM
Excerpt: as §1, §2, §3, §4

- shift of modulatory dose-response relative to parent compound 1 (α1β1 GABAA receptors): approximately twenty-fold right shift
- EC50 (α1β1γ1 GABAA receptors): 21 µM
- activity at 0.003 µM (α1β1γ1 GABAA receptors; read-out: efficacy, % of control current (GABA EC3-5 = 100%), α1β1γ1, 3 nM): 105.1 ± 0.7%
- activity at 0.01 µM (α1β1γ1 GABAA receptors; read-out: efficacy, % of control current (GABA EC3-5 = 100%), α1β1γ1, 10 nM): 106 ± 1.9%
- activity at 0.03 µM (α1β1γ1 GABAA receptors; read-out: efficacy, % of control current (GABA EC3-5 = 100%), α1β1γ1, 30 nM): 108 ± 1.4%
- activity at 0.1 µM (α1β1γ1 GABAA receptors; read-out: efficacy, % of control current (GABA EC3-5 = 100%), α1β1γ1, 100 nM): 112 ± 0.9%
- activity at 1 µM (α1β1γ1 GABAA receptors; read-out: efficacy, % of control current (GABA EC3-5 = 100%), α1β1γ1, 1 µM): 121 ± 3.2%
- activity at 3 µM (α1β1γ1 GABAA receptors; read-out: efficacy, % of control current (GABA EC3-5 = 100%), α1β1γ1, 3 µM): 159 ± 3.2%
- activity at 10 µM (α1β1γ1 GABAA receptors; read-out: efficacy, % of control current (GABA EC3-5 = 100%), α1β1γ1, 10 µM): 175 ± 13.6%
- Hill slope (nH) (α1β1γ1 GABAA receptors; α1β1γ1): 0.6±0.2
- EC50 (α1β1δ GABAA receptors; read-out: EC50): 2.3 µM
- activity at 0.003 µM (α1β1δ GABAA receptors; read-out: efficacy, % of control current (GABA EC3-5 = 100%), α1β1δ, 3 nM): 100 ± 0.7%
- activity at 0.01 µM (α1β1δ GABAA receptors; read-out: efficacy, % of control current (GABA EC3-5 = 100%), α1β1δ, 10 nM): 106 ± 2.8%
- activity at 0.03 µM (α1β1δ GABAA receptors; read-out: efficacy, % of control current (GABA EC3-5 = 100%), α1β1δ, 30 nM): 108 ± 5.2%
- activity at 0.1 µM (α1β1δ GABAA receptors; read-out: efficacy, % of control current (GABA EC3-5 = 100%), α1β1δ, 100 nM): 128 ± 3.4%
- activity at 0.3 µM (α1β1δ GABAA receptors; read-out: efficacy, % of control current (GABA EC3-5 = 100%), α1β1δ, 300 nM): 163 ± 6.2%
- activity at 1 µM (α1β1δ GABAA receptors; read-out: efficacy, % of control current (GABA EC3-5 = 100%), α1β1δ, 1 µM): 381 ± 48.7%
- activity at 3 µM (α1β1δ GABAA receptors; read-out: efficacy, % of control current (GABA EC3-5 = 100%), α1β1δ, 3 µM): 636 ± 116%
- activity at 10 µM (α1β1δ GABAA receptors; read-out: efficacy, % of control current (GABA EC3-5 = 100%), α1β1δ, 10 µM): 885 ± 293%
- Hill slope (nH) (α1β1δ GABAA receptors; α1β1δ): 1.1±0.8
SMILES: COc1ccc(-n2nc3c4cc(Cl)cc(C(C)(C)C)c4[nH]cc-3c2=O)cc1 [Compound 7, 6-(tert-Butyl)-8-chloro-2-(4-methoxyphenyl)-2,5-dihydro-3H-pyrazolo[4,3-c]quinolin-3-one]
